Source: patent publication US4762840A, “Pyrimido[2,1-b]benzothiazoles having antiallergic activity” (Roussel Uclaf, priority 1984, dated 1988)

Test system: lungs
Assay: Antigen-induced elevation of lung perfusion pressure (isolated perfused sensitized lung, ovalbumen)
Design: species or system guinea pig (Dunkin Hartley)
Details: Cavia porcellus; perfused lungs of ovalbumen-sensitized guinea pigs; compound in krebs fluid 30 minutes prior to second antigen dose (15 μg ovalbumen); at least four lungs per concentration; read-out: IC50 (inhibition of antigen induced broncho-constriction)
Procedure: Antigen-induced elevation of lung perfusion pressure
Male Dunkin Hartley guinea pigs (Porcellus) weighing between 450-700 g were used (four per test concentration) and were housed in cages. The animals were sensitized by two weekly exposures to 1% W/V aerosol ovalbumen. The animals were anaesthetized with 2.5 mg/kg diazepam i.p. and 1 ml/kg Hyponorm i.m. Following anaethesia, the animals were exsanguinated by severing both carotid arteries and the chest was opened and the lungs removed, split into two at the carina and both cannulated via the main lobar bronchus and connected to a perfusion system. The lungs were perfused with aerated krebs fluid (95% O2 :5% CO2) at 37° C. and 5 μg in 0.1 ml Ovalbumen was injected through an injection port proximal to each lung. Elevation of perfusion pressure by the antigen was recorded and sixty minutes later, 15 μg of ovalbumen were administered. The test compounds were added to the krebs fluid reservoir thirty minutes prior to the second antigen dose. For each weekly batch of animals used, control measurements were made without treatment (n=10 ). The second antigen response was expressed as a percentage of the first. For each test, at least four lungs from four different animals were used per concentration. The percentage inhibition of antigen induced broncho-constriction was calculated.

Structure (SMILES)	IC50 [µM]
CCN(CC)C(=O)Cc1ccc2c(c1)sc1nc(=O)cc(-c3ccccc3)n12 [Example 47, N,N-diethyl-2-oxo-4-phenyl-2H-pyrimido-[2,1-b]benzothiazole-8-acetamide]	10
O=C(Cc1ccc2c(c1)sc1nc(=O)cc(-c3ccccc3)n12)N1CCCCC1 [Example 48, 1-(N-piperidino)-2-(2-oxo-4-phenyl-2H-pyrimido[2,1-b]benzothiazole-8-yl)-ethanone]	10 to 100
CC(C(=O)OC1(C)CCCCC1)c1ccc2c(c1)sc1nc(=O)cc(-c3ccccc3)n12 (stereo not drawn) [Example 49, 1-Methylcyclohexyl α-methyl-2-oxo-4-phenyl-2H-pyrimido[2,1-b]benzothiazole-8-acetate]	1 to 10
CC(C(=O)OC12CC3CC(CC(C3)C1)C2)c1ccc2c(c1)sc1nc(=O)cc(-c3ccccc3)n12 (stereo not drawn) [Example 50, 1-Adamantyl α-methyl-2-oxo-4-phenyl-2H-pyrimido[2,1-b]benzothiazole-8-acetate]	≤ 1
